The record followed here is publication PMC7180948, “New Insights into 4-Anilinoquinazolines as Inhibitors of Cardiac Troponin I–Interacting Kinase (TNNi3K)” (Molecules, 2020).

Common to all, as to experiment: biochemical
Common to all, as to design: KINOMEscan competition binding panel (Eurofins DiscoverX), single concentration, % inhibition
What all share (settings): read-out: 7 at 1 µM % inhibition

Experiment [1] has as its target T1, ABL1(Q252H)-nonphosphorylated (Homo sapiens, UniProt P00519, Q252H).
T1 construct: nonphosphorylated
The procedure, abridged:
(§1)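 KINOMEscan selectivity screen; >400 human kinases; compound at 1 µM, single concentration.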

The target in experiment [2] is AURKA (Homo sapiens, UniProt O14965). The procedure, abridged: as §1
Chain of AURKA (O14965 whole entry): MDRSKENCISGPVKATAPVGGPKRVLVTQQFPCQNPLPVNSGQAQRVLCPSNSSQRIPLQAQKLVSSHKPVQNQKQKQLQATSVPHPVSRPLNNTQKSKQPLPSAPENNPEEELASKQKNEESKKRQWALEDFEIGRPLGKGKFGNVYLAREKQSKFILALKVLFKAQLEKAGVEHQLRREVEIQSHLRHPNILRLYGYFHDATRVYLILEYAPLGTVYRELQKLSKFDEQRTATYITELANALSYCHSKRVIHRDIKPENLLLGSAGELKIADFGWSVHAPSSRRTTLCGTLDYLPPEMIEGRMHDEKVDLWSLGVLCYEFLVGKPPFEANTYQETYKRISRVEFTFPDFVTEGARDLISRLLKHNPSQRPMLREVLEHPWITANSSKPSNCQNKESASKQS
Experiment [3] addresses CAMK1G (Homo sapiens, UniProt Q96NX5). The procedure, abridged: as §1
For experiment [4], the target named is CSF1R (Homo sapiens, UniProt P07333). The procedure, abridged: as §1
Experiment [5] concerns the target T2, CTK (Homo sapiens, UniProt P42679).
T2 construct: gene MATK
In short, it runs like this: as §1

Experiment [6] has as its target T3, DCAMKL2 (Homo sapiens, UniProt Q8N568).
T3 construct: gene DCLK2
In short, it runs like this: as §1

Experiment [7] has as its target EGFR(L858R,T790M) (Homo sapiens, UniProt P00533, L858R/T790M). In short, it runs like this: as §1
For experiment [8], the target named is T4, ERK5 (Homo sapiens, UniProt Q13164).
T4 construct: gene MAPK7
The procedure, abridged:
as §1

In experiment [9] the target is FGFR4 (Homo sapiens, UniProt P22455). In short, it runs like this: as §1
Experiment [10] addresses FLT3(ITD) (Homo sapiens, UniProt P36888, ITD). The procedure, abridged: as §1
Experiment [11] has as its target FLT3(N841I) (Homo sapiens, UniProt P36888, N841I). The procedure, abridged: as §1
Experiment [12] addresses ITK (Homo sapiens, UniProt Q08881). The procedure, abridged:
as §1

Experiment [13] concerns the target LIMK2 (Homo sapiens, UniProt P53671). In short, it runs like this:
as §1

Experiment [14] concerns the target MAK (Homo sapiens, UniProt P20794). In short, it runs like this:
as §1

In experiment [15] the target is T5, MLK1 (Homo sapiens, UniProt P80192).
T5 construct: gene MAP3K9
In short, it runs like this: as §1

In experiment [16] the target is T6, MLK2 (Homo sapiens, UniProt Q02779).
T6 construct: gene MAP3K10
In short, it runs like this:
as §1

For experiment [17], the target named is T7, MRCKA (Homo sapiens, UniProt Q5VT25).
T7 construct: gene CDC42BPA
The procedure, abridged: as §1

Experiment [18] concerns the target MYLK (Homo sapiens, UniProt Q15746). The procedure, abridged:
as §1

Experiment [19] concerns the target RAF1 (Homo sapiens, UniProt P04049). The procedure, abridged: as §1
For experiment [20], the target named is ROCK1 (Homo sapiens, UniProt Q13464). In short, it runs like this:
as §1

The target in experiment [21] is SRMS (Homo sapiens, UniProt Q9H3Y6). The procedure, abridged:
as §1

Experiment [22] concerns the target TGFBR2 (Homo sapiens, UniProt P37173). The procedure, abridged:
as §1

Experiment [23] concerns the target TNIK (Homo sapiens, UniProt Q9UKE5). The procedure, abridged:
as §1

For experiment [24], the target named is ULK2 (Homo sapiens, UniProt Q8IYT8). In short, it runs like this:
as §1

T2 sequence (P42679 whole entry): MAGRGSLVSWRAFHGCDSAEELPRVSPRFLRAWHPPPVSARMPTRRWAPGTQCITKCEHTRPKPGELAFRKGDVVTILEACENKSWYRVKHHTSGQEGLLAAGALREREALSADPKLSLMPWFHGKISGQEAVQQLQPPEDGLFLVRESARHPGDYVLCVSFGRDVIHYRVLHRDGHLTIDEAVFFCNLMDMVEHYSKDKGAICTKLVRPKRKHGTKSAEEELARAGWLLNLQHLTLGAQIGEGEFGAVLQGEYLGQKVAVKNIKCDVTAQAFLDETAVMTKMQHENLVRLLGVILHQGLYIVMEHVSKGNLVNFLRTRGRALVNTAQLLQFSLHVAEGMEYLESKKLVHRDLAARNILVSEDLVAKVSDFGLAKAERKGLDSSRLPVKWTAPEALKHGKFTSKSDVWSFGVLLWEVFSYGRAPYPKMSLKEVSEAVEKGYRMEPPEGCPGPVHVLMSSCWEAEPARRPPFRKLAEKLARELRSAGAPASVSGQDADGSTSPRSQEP
Chain of SRMS (Q9H3Y6 whole entry): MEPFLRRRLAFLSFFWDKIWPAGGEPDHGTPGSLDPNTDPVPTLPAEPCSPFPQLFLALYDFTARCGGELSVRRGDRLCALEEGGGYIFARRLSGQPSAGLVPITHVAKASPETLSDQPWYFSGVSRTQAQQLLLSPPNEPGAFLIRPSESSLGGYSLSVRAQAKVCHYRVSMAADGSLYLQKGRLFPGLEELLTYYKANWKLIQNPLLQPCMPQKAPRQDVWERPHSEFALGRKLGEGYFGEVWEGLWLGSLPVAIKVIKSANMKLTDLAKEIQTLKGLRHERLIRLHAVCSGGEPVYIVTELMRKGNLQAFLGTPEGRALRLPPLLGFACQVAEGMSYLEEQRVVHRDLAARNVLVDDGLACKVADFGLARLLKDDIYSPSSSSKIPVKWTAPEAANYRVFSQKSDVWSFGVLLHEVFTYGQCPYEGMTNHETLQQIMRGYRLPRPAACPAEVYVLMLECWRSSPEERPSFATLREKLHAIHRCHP
Chain of ULK2 (Q8IYT8 whole entry): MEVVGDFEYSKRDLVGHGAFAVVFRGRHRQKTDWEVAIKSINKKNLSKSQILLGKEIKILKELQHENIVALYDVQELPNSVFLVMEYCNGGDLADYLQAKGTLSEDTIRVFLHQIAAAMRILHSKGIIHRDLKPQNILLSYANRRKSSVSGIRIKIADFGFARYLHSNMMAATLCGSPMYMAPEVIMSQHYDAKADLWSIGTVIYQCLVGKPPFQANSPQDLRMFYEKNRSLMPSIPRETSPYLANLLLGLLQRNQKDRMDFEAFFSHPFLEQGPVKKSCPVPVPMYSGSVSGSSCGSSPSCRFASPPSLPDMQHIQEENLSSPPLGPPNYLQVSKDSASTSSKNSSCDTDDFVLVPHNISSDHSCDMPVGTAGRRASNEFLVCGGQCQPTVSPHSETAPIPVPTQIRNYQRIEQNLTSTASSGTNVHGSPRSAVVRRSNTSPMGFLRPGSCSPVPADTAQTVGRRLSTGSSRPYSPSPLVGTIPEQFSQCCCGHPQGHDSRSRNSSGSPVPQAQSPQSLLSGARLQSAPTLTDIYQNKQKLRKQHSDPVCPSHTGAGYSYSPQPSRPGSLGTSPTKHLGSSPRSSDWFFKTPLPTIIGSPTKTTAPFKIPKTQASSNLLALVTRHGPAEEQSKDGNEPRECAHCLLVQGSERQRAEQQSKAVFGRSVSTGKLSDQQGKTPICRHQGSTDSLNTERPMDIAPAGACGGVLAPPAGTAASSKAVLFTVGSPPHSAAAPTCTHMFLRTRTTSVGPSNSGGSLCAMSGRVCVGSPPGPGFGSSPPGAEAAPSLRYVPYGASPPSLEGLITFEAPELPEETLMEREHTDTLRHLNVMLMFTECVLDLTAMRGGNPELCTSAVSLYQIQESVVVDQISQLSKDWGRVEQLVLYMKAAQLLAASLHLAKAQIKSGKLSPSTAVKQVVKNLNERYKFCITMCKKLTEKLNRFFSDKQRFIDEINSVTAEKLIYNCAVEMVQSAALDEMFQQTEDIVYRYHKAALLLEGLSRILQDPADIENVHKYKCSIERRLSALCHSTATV
Chain of RAF1 (P04049 whole entry): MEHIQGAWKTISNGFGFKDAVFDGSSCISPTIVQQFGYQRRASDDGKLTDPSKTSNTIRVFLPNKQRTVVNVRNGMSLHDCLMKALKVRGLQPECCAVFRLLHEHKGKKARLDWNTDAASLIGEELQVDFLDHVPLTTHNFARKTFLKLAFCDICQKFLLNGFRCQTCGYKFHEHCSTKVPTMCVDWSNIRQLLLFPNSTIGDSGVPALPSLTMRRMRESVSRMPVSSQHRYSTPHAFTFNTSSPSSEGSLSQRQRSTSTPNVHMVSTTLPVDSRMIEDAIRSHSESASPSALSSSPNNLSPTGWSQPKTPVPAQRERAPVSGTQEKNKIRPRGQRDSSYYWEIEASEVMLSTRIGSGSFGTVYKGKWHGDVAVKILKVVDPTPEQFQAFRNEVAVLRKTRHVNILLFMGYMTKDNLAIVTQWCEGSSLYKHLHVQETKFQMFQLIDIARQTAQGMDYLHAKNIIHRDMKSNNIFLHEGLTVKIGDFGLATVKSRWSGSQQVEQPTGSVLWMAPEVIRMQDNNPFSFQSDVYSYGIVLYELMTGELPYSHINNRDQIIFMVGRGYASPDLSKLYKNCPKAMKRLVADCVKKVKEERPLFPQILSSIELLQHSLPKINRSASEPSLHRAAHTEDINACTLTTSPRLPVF
Chain of ROCK1 (Q13464 whole entry): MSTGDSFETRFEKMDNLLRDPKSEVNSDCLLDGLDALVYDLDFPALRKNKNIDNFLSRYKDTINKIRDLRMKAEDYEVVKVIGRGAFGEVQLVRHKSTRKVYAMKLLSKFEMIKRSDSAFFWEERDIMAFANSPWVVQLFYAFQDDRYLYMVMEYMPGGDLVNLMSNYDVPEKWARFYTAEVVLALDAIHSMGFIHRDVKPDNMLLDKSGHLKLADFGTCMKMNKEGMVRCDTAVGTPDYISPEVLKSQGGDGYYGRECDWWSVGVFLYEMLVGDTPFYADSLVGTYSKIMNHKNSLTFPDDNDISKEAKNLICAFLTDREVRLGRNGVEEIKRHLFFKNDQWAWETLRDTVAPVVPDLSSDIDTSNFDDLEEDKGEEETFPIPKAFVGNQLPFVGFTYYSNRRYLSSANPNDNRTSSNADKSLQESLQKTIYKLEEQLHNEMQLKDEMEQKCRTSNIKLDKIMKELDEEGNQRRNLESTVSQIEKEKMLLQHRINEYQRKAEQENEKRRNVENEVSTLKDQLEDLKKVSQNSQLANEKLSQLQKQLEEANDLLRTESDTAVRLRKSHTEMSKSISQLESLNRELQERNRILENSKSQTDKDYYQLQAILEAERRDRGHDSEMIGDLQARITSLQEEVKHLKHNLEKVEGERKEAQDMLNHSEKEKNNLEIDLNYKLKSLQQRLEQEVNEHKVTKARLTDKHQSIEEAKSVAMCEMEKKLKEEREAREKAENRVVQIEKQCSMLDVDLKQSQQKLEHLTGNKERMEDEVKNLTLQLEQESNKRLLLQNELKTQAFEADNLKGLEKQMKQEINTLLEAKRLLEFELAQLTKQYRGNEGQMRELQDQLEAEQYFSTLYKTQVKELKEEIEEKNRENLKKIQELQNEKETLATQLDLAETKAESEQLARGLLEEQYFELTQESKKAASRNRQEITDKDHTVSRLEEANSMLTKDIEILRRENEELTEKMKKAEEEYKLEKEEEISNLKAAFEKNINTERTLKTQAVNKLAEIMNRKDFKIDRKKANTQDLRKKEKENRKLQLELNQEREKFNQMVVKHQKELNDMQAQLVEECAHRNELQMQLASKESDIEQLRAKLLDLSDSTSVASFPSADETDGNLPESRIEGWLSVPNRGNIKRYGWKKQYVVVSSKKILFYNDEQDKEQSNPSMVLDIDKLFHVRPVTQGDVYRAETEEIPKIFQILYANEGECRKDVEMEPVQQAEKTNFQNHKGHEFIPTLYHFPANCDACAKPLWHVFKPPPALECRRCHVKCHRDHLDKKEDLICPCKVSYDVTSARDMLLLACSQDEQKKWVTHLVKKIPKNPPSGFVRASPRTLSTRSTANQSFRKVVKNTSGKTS
Chain of MAK (P20794 whole entry): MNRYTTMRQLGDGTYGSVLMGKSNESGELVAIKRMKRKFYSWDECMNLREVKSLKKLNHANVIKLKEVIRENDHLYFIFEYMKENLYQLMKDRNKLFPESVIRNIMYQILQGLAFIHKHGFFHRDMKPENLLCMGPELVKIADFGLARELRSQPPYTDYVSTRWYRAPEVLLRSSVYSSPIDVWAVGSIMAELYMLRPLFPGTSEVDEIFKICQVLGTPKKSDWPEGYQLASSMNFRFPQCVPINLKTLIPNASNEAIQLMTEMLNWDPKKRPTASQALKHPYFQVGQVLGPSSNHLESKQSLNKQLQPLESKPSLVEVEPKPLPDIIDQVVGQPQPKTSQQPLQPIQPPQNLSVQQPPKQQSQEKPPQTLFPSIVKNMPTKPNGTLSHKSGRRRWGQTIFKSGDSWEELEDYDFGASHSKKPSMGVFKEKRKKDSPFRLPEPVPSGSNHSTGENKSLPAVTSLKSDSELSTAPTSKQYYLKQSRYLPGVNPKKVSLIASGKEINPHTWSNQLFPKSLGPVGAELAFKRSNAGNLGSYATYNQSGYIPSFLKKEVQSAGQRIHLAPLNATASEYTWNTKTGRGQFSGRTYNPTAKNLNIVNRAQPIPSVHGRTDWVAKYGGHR

As to `CNS(=O)(=O)c1ccc(N(C)C)c(Nc2ncnc3cc(OC)c(OC)cc23)c1` [compound 7, 3-((6,7-dimethoxyquinazolin-4-yl)amino)-4-(dimethylamino)-N-methylbenzenesulfonamide], the inhibition at 1 µM in experiment [1] stood at 50%; in experiment [2], 16%; in experiment [3] it was 0%; in experiment [4], 22%; in experiment [5], 1%; in experiment [6] it was 0%. For the same molecule, the inhibition at 1 µM in [7] was 7%; in experiment [8], 6%; in [9] it was 0%; in experiment [10], 0%; in [11], 0%; in experiment [12], 0%. The inhibition at 1 µM is 0% in experiment [13]; 0% in experiment [14]; 10% in [15]; 15% in [16]; 0% in experiment [17]; 9% in experiment [18]. The inhibition at 1 µM was 23% in [19]; 1% in [20]; 41% in experiment [21]; 0% in experiment [22]; 7% in experiment [23]; 19% in experiment [24].

The inhibition is the percentage by which the read-out fell short of the control.
